Reference: a melting point compilation (Tetko et al.; mined from patent text by program, amines drawn as free bases though some values may be those of a salt)

Compound	melting point [°C]
CC(O)c1csc(S(N)(=O)=O)c1 (stereo not drawn)	164 to 167
O=C1c2c(O)ccc(O)c2C(=O)c2c(NCCN=Cc3ccccc3)ccc(NCCN=Cc3ccccc3)c21	174 to 179
O=Cc1ccc(OCCBr)c2ccccc12	83 to 84
Cc1ccc(C(=O)OC(C)c2nc3c(c(=O)n(C)c(=O)n3C)n2C)c(C)n1 (stereo not drawn)	160
COc1ccc(C(C#N)Cc2c(Cl)cncc2Cl)c2c1OC(C)(C)C2 (stereo not drawn)	158 to 162
COC(=O)c1cc(-c2ccc(F)c(C)c2)nn(CC(C)C)c1=O	71.4 to 73.8
CCN(C)c1nc2cc(NC(=O)c3c(C(=O)O)cnn3C)ccn2n1	> 250
OCc1cnoc1-c1cc(Cl)cc(Cl)c1	104 to 105
COc1cc([N+](=O)[O-])c(N)cc1C(N)=O	250 to 257
COC(=O)c1ccc(/C=C(\C)c2ccc3c(c2)C(C)(C)CCN3C(C)=O)cc1	141 to 142
COc1cccc2c(=O)c(C(=O)C3CCCCC3)c[nH]c12	168 to 170
Cc1nn(CCc2ccccc2)cc1C(=O)Nc1ccc(N2CCC(N3CCOCC3)CC2)c(C#N)c1	188
Cc1c(CC(=O)O)c2cc(O)ccc2n1C(=O)c1ccc(F)c(F)c1	143 to 145
CCCc1nc2c(C)cccc2n1Cc1ccc(-c2ccccc2-c2nnn[nH]2)nc1	169 to 170
CC(C)N1CC2(COc3ccc(N(C)C)cc3OC2)OC1=O (stereo not drawn)	135 to 138
ClC(Cl)(Cl)c1nncs1	58
CC(=O)Nc1cccc2ccc(OCC3CC3)cc12	154 to 155
Cc1ccc(N(c2ccc(C)cc2)c2ccc(C=C3c4ccccc4C=Cc4ccccc43)cc2)cc1	168 to 169
CNC1CCN(c2c(F)cc3c(=O)c(C(=O)O)cn(C4COC4)c3c2F)C1 (stereo not drawn)	252 to 255
CN1CCN(c2ccc(/C=C/c3cc(/C=C/c4ccc5cc[nH]c5c4)[nH]n3)cc2)CC1	192 to 198
CC1(C)OCC(C(O)CN)O1 (stereo not drawn)	94 to 96
Cc1cccc(N=NC2=NCCS2)c1C	74 to 79
COC(OC)c1cc(C)nc(NC(=O)NS(=O)(=O)c2ccccc2Cl)n1	150 to 153
CC(Oc1ccc([N+](=O)[O-])cc1)C(=O)OCCOC(=O)C(C)Oc1ccc([N+](=O)[O-])cc1 (stereo not drawn)	118 to 120
Cc1cccc(C)c1NCCCCn1ccnc1	146 to 147

Compound	melting point [°C]
O=C(O)CCC(CC=Cc1ccccc1Cl)(C(=O)C=Cc1ccc(Cl)cc1)c1ccccc1 (stereo not drawn)	90 to 125
c1ccc(C(c2ccccc2)N2CCc3ccccc32)cc1	62 to 63.5
CCCCCCn1c(=O)c2cn(CC)nc2n(C)c1=O	107 to 108
COC(=O)CNc1cccc(C#N)c1	91.5 to 92.5
CSc1ccc(C2=C(Br)C(=O)OC2)cc1	138 to 140
CCN(CC)CCOc1nc2ccccc2n(-c2ccc(Cl)cc2)c1=O	165 to 167
C=CCOc1cccc2oc(C(=O)OCC)c(C)c12	64 to 65
CCCCc1sc(C(=O)O)c2c1-c1c(cnn1C)CC2	286 to 287
CCc1nc(NC(=S)NCCc2ccccc2Oc2ccccc2)cs1	168
COc1ccc(CCN2COc3c(cccc3OC)C2)cc1	69 to 70
CC1=CC(OC(=O)C=Cc2ccc(O)cc2)C(O)C(C)(C)CC1=O (stereo not drawn)	176 to 177
CCCCc1cn(-c2ccccc2CC)c(=O)n1Cc1ccc(-c2ccccc2-c2nnn[nH]2)cc1	188 to 189
CC1(C)CCC(C)(C)c2cc(-c3ccc4cc(O)ccc4c3)ccc21	104
OC(CN1CCC(c2noc3cc(F)ccc23)CC1)CN1CCCc2ccccc21 (stereo not drawn)	170 to 171
CCCCOc1ccc(SCCSc2ccc(OCCCC)cc2)cc1	102 to 103
COc1ccc(C(=O)Nc2ccccc2)cc1NCc1ccc2c(c1)OCO2	185 to 187
O=C(CNC(=O)OCc1ccccc1)Nc1nnc(SCc2ccccc2)s1	200 to 202
CC#Cc1ccc(NC(=O)C#Cc2ccc(CCN3CCCC3)cc2)cc1	198 to 199
CCCCN(CCCC)CCN=c1sc2ccccc2s1	122 to 123
Cc1cc(N)ccc1N1CCC(N2CCOCC2)CC1	199 to 200
CC1OP(=O)(O)c2ccccc21 (stereo not drawn)	148 to 149
CONC(=O)c1cc(C)c(C(c2cc(F)ccc2F)S(=O)(=O)c2ccc(F)cc2)cn1 (stereo not drawn)	231 to 234
CCOc1ccc(S(=O)(=O)c2ccc(C)nc2Nc2c(C)cc(C)cc2C)cc1	157 to 159
CCCN(CCC)c1c(CC)nn2c(-c3ccc(OC)cc3C)cccc12	76 to 79
N#Cc1ccc(-c2cccc(-c3nc4cc(C#N)ccc4[nH]3)c2O)cc1	318 to 320

Compound	melting point [°C]
CC(NCCCO)c1ccc(C2CCC(N(C)C(=O)c3ccc(Cl)cc3)CC2)cc1 (stereo not drawn)	118 to 120
COCCNc1ccc(C(=O)c2c(C)n(CCN3CCOCC3)c3ccccc23)cc1	121 to 123
CCCCCCOc1c(C=Cc2ccc(Br)cc2)ccc2c(OCCCCCC)c(C=Cc3ccc(Br)cc3)ccc12	170 to 172
CCCn1ccc2c(NCCc3ccc(OC)cc3)cccc2c1=O	109 to 110
O=c1[nH]c2scc(C3CCCCC3)c2[nH]c1=O	> 270
CCOC(=O)c1c2ccc(Cl)cc2c(-c2ccccc2)n1CCNC(=O)OCc1ccccc1	102 to 104
Cc1cc2c(cc1C(=O)c1c(C(F)(F)F)ccnc1Cl)OCO2	119 to 122
Cc1ccc(C(=O)O)c(Nc2ccc3cn[nH]c3c2)n1	273 to 274
CC1=CC(=C(C#N)C#N)C=C(C)N1	158 to 159
Nc1ccc(-n2ccn(-c3ccc(OC(F)(F)C(F)F)cc3)c2=O)cc1	150 to 151
O=C(O)c1ccc(Br)cc1C(=O)c1ccccc1	185 to 187
O=C1CCC(N2Cc3c(OCc4nc5cc(CN6CCOCC6)ccc5s4)cccc3C2=O)C(=O)N1 (stereo not drawn)	228 to 230
O=C(O)Cc1ccc2c(c1)CCc1ccccc1O2	135 to 137
Cc1nc(-c2ccccc2)cc(-c2cccc([N+](=O)[O-])c2)c1NC(=O)NCCN(C)C	159 to 161
CCCn1c(=O)c2c(nc(/C=C/c3cc(OC)c(OC)c(OC)c3)n2C)n(CCC)c1=O	168 to 169
O=C(NCc1ccccc1)c1csc(-n2ccc(OCc3ccccc3)cc2=O)c1	162 to 163
COC(=O)c1cccc2cc(Cc3cc(NC(C)=O)ncn3)ccc12	158 to 160
COc1ccc(C[C@H](NC(=O)OCc2ccccc2)[C@H]2CO2)cc1	86 to 87
Fc1ccc2[nH]cc(C3=CCN(CC4CCc5ccccc5O4)CC3)c2c1 (stereo not drawn)	172 to 175
CN1CCC(=O)N(c2ccccc2Cl)C1=O	120 to 123
CC(C)N(NC(=O)c1ccc(Cl)c(Cl)c1)C(=O)c1ccccc1	157
CC(c1ccc(Br)cc1)N1CCC(NC(=O)CCc2nc(-c3ccccn3)no2)CC1 (stereo not drawn)	142 to 143
Oc1cc(CBr)c2oc(-c3ccc(O)c(F)c3)cc2c1	269 to 271
